Source: patent US20250090699A1, “FAP TARGETING CYCLIC PEPTIDES AND CONJUGATES THEREOF” (Novartis AG, priority 2023, published 2025)
Counter-ions that a name gives are not always drawn. Starred links: 1 amine or outer side, 2 acyl side, 3 side chain; linkers in the order of their positions; H or OH if unused. Non-standard residues stand in square brackets, D forms with d. Residues, ends and D or L forms follow the SMILES beside them. *: point of attachment. F4(amBAlaDOTALu) = lutetium complex of (S)-2,2',2''-(10-(2-((3-((4-(2-amino-2-carboxyethyl)benzyl)amino)-3-oxopropyl)amino)-2-oxoethyl)-1,4,7,10-tetraazacyclododecane-1,4,7-triyl)triacetic acid (Phe with 4-aminomethyl-βAla-DOTA-Lu), O=C([O-])CN1CCN(CC(=O)[O-])CCN(CC(=O)NCCC(=O)NCc2ccc(C[C@H](N[*:1])C(=O)[*:2])cc2)CCN(CC(=O)[O-])CC1.[Lu+3]; X9 = O=C(O)CN1CCN(CC(=O)O)CCN([C@H](CCC(=O)*)C(=O)O)CCN(CC(=O)O)CC1; Pyrrolidine(2S-CN,4,4-F2) = N#C[C@@H]1CC(F)(F)CN1*; Phe(4-CH2NH2) = NCc1ccc(C[C@H](N)C(=O)O)cc1; AEF = NCCOc1ccc(C[C@H](N)C(=O)O)cc1; NMeF = CN[C@@H](Cc1ccccc1)C(=O)O; Ahp(2) = CCCCC[C@H](N)C(=O)O

Tests used:
mouse FAP [1] = biological target: T1, mouse FAP (Mus musculus, UniProt P97321); experiment: Surface plasmon resonance (SPR) for peptide affinity, mouse FAP; format: binding
T1 construct: biotinylated His, Avi tag, mouse FAP (26-761, FAP-M82Q5); His; Avi tag (biotinylated); purchased AcroBiosystems FAP-M82Q5
T1 sequence (P97321 26-761): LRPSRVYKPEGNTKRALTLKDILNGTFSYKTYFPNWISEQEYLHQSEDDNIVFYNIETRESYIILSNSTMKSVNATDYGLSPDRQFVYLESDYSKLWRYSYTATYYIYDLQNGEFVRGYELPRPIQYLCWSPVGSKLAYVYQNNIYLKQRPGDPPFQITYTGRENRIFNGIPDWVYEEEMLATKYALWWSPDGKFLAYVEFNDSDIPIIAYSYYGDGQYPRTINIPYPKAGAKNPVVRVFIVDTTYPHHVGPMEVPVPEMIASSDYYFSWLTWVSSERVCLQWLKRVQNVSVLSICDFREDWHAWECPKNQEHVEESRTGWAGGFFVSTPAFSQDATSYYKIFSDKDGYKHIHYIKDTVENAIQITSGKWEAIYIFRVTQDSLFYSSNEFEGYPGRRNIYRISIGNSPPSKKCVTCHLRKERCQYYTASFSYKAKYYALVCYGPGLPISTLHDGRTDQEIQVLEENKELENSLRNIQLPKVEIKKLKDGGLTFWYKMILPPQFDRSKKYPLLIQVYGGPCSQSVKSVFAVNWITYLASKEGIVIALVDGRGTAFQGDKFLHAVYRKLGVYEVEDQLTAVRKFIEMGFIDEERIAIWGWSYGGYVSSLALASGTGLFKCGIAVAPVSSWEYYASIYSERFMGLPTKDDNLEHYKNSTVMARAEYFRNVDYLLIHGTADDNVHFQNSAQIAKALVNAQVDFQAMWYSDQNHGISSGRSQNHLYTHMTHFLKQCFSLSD
Experimental: Peptide affinities (KD) were determined by SPR using a Biacore™ 8K device (Cytiva) towards the following proteins: biotinylated His, Avi tag, human FAP (26-760, FAP-H82Q6), biotinylated His, Avi tag, mouse FAP (26-761, FAP-M82Q5), His tag, human DPP4 (34-766, DP4-H82E3), all purchased from AcroBiosystems and His tag, mouse DPP4 (29-760, 954-SE) from R&D Systems. The FAP proteins and their homologous were diluted to a concentration of 2 μg/mL into acetate buffer pH 5.5, then immobilized onto a CM5 sensorchip (Cytiva, BR-1005-30) to reach a response around 2000 R U. The running buffer HBS-EP+pH 7.6 (20× from Teknova CAT. No: H8022) contained 10 mM HEPES pH 7.6, 150 mM NaCl, 3 mM EDTA, 0.05% Tween20 and 2% DMSO. Experiments were carried out at 25° C. using a flow rate of 30 μL/min. Compounds were tested in single cycle kinetic mode at 8 different concentrations. Curve fitting was performed using the Biacore™ 8K evaluation software. The sensorgrams were fitted by applying a 1:1 binding model to calculate kinetic rate constants and equilibrium dissociation constants (KD).
For this assay, the setup had the same conditions (flow rate, running buffer, peptide dilution) as described above for the CM5 method. The oligo CAP reagent obtained in the CAPture Kit (Ref. 28920234) was 1/5 diluted into running buffer and used with a contact time of 300 s at a flow rate of 2 μL/min. The human and mouse FAP constructs described above were used (from AcroBiosystems or produced in house). The FAP proteins were diluted to a concentration of 2 μg/mL into acetate pH 5.5, 0.05% Tween20 and used with a contact time of 600 s at a flow rate of 10 μL/min. The peptides were tested with an association time of 280 s followed by a dissociation time of 3000 s at a flow rate of 30 μL/min. The regeneration was done using the regeneration solution (8 M guanidine-HCl, 1 M NaOH) as obtained with a contact time of 270 s at a flow rate of 10 μL/min. […] The compounds marked with an asterisk were tested against human and mouse DDP4.

mouse FAP [2] = biological target: T1, mouse FAP; experiment: Enzymatic FAP competition assay (Z-Gly-Pro-AMC fluorescence), mouse FAP; format: biochemical; settings: read-out: m. FAP, Enz., IC50
Experimental: (§1) Peptide potencies (IC50) to inhibit the FAP enzymatic activity were determined using a fluorescence-based assay towards the biotinylated His, Avi tag, human FAP (26-760, FAP-H82Q6) and the biotinylated His, Avi tag, mouse FAP (26-761, FAP-M82Q5). Standard assay conditions consisted of 20 μL total volume in white 384-well plates (Greiner, Ref. 784075), in 50 mM phosphate buffer pH 7.5 containing 150 mM NaCl, 0.05% Tween20 and 1% final DMSO. Tested peptides at 14 different concentrations up to 1 μM were added to 0.01 nM human or mouse FAP. The peptides were incubated for 24 hours together with the protein before adding the substrate 50 μM Z-Gly-Pro-AMC (I-1145 from Bachem). Samples were then incubated at 22-24° C. for 4 h before reading the fluorescence at excitation wavelength of 380 nm and emission wavelength of 460 nm using the Tecan Infinite® M1000 PRO. The high control (100% activity) was not containing any peptide, and an internal potent peptide was added at 10 μM concentration for the low control (100% inhibition). IC50 values were calculated by curve fitting using an in-house developed software (Novartis Helios software application) using the method described by Fomenko et al., 2006 (regression algorithms for nonlinear dose-response curve fitting). Following normalization of activity values for the wells to % inhibition (% inhibition=[(high control-sample)/(high control-low control)]x 100). IC50 fitting was carried out from the duplicated points.

human FAP = biological target: T2, human FAP (Homo sapiens, UniProt Q12884); experiment: Enzymatic FAP competition assay (Z-Gly-Pro-AMC fluorescence), human FAP; format: biochemical; settings: read-out: h. FAP, Enz., IC50
T2 construct: the biotinylated His, Avi tag, human FAP (26-760, FAP-H82Q6); His; Avi tag (biotinylated); purchased AcroBiosystems FAP-H82Q6
T2 sequence (Q12884 26-760): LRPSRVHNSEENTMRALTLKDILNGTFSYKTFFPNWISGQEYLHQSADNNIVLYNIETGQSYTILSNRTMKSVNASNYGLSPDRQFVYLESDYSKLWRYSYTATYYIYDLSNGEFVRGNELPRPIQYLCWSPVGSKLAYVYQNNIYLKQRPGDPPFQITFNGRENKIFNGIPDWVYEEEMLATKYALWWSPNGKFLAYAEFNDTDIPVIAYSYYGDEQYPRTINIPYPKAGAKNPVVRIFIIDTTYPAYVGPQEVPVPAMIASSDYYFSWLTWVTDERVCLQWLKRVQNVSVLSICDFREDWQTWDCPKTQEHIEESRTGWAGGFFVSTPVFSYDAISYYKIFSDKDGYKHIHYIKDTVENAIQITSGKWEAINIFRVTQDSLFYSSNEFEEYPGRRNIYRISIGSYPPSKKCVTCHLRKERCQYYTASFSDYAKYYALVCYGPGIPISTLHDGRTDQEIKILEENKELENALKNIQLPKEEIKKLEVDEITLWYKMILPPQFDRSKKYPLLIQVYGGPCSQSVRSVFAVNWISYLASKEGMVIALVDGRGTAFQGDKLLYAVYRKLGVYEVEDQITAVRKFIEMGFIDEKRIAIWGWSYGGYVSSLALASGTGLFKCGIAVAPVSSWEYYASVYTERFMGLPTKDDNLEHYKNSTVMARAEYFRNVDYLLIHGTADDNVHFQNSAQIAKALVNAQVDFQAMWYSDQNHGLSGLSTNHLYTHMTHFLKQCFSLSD
Experimental: as §1

| Compound | Kd (mouse FAP [1]) [nM] | IC50 (mouse FAP [2]) [nM] | IC50 (human FAP) [nM] |
| --- | --- | --- | --- |
| CCCCC[C@@H]1NC(=O)[C@H](Cc2ccc(OCCNC(=O)CC[C@H](C(=O)O)N3CCN(CC(=O)O)CCN(CC(=O)O)CCN(CC(=O)O)CC3)cc2)NC(=O)[C@H](Cc2ccccc2)N(C)C(=O)CNC(=O)CNC(=O)[C@H]2CCCN2C(=O)[C@H](CC(=O)O)NC(=O)[C@H](Cc2ccc(O)cc2)NC(=O)CNC(=O)[C@H](Cc2c[nH]c3ccccc23)NC1=O [Example B30, Gly-Gly-NMePhe-F(4OEtNHRDOTAGA)-Ahp-Trp-Gly-Tyr-Asp-D-Pro] (cyclo([AEF](X9)[Ahp(2)]WGYD[dP]GG[NMeF])) | 0.119 | 0.118 | 0.019 |
| CCCCC[C@@H]1NC(=O)[C@H](Cc2ccc(O)cc2)NC(=O)[C@H](Cc2ccccc2)NC(=O)CNC(=O)[C@H](CCCCN)NC(=O)[C@H]2CCCN2C(=O)[C@H](CC(=O)O)NC(=O)[C@H](Cc2ccc(O)cc2)NC(=O)CNC(=O)[C@H](Cc2c[nH]c3ccccc23)NC1=O [Example A22, Lys-Gly-Phe-Tyr-Ahp-Trp-Gly-Tyr-Asp-D-Pro, TFA salt] (cyclo([Ahp(2)]WGYD[dP]KGFY)) | 0.87 | 0.67 | 0.33 |
| CCCCC[C@@H]1NC(=O)[C@H](Cc2ccc(O)cc2)NC(=O)[C@H](Cc2ccccc2)N(C)C(=O)CNC(=O)[C@@H](CO)NC(=O)[C@H]2CCCN2C(=O)[C@H](CC(=O)O)NC(=O)[C@H](Cc2ccc(O)cc2)NC(=O)CNC(=O)[C@H](Cc2c[nH]c3ccccc23)NC1=O [Example A69, D-Ser-Gly-NMePhe-Tyr-Ahp-Trp-Gly-Tyr-Asp-D-Pro] (cyclo([Ahp(2)]WGYD[dP][dS]G[NMeF]Y)) | 0.222 | 0.47 | 0.121 |
| Gly-Gly-NMePhe-F4(amBAlaDOTALu)-Ahp-Trp-Gly-Tyr-Asp-D-Pro (cyclo(GG[NMeF][F4(amBAlaDOTALu)][Ahp(2)]WGYD[dP]); also: Lu complex) [Example C10] | 0.033 | 0.024 | 0.01 |
| CN1C(=O)CNC(=O)[C@H](CCCCN)NC(=O)[C@H]2CCCN2C(=O)[C@H](CC(=O)O)NC(=O)[C@H](Cc2ccc(O)cc2)NC(=O)CNC(=O)[C@H](Cc2c[nH]c3ccccc23)NC(=O)[C@H](CCC(=O)N2CC(F)(F)C[C@H]2C#N)NC(=O)[C@H](Cc2ccc(O)cc2)NC(=O)[C@@H]1Cc1ccccc1 [Example A29, Lys-Gly-NMePhe-Tyr-Q(Pyrro(2CN4F2))-Trp-Gly-Tyr-Asp-D-Pro] (cyclo(KG[NMeF]YE(Pyrrolidine(2S-CN,4,4-F2))WGYD[dP])) | 0.044 | 0.082 | 0.059 |
| CCCCC[C@@H]1NC(=O)[C@H](Cc2ccc(CNC(C)=O)cc2)NC(=O)[C@H](Cc2ccccc2)N(C)C(=O)CNC(=O)CNC(=O)[C@H]2CCCN2C(=O)[C@H](CC(=O)O)NC(=O)[C@H](Cc2ccc(O)cc2)NC(=O)CNC(=O)[C@H](Cc2c[nH]c3ccccc23)NC1=O [Example A28, Gly-Gly-NMePhe-F(4AmAc)-Ahp-Trp-Gly-Tyr-Asp-D-Pro] (cyclo(GG[NMeF][Phe(4-CH2NH2)](Ac)[Ahp(2)]WGYD[dP])) | 0.52 | 0.33 | 0.063 |
